Measured values: patent publication US20240034729A9, “HETEROCYCLIC COMPOUND, INTERMEDIATE, PREPARATION METHOD THEREFOR AND APPLICATION THEREOF” (WUHAN LL SCIENCE AND TECHNOLOGY DEVELOPMENT CO., LTD., priority 2018, published 2024)

What follows are molecules tested against hP2X3 (human purinergic P2X receptor subtype 3) (Homo sapiens (Human), UniProt P56373) (assay: FLIPR calcium assay, hP2X3 expressed in HEK293 cells). Settings: HEK293 cells expressing hP2X3, agonist BZ-ATP 2.5 μM; class symbols; read-out: P2X3 IC50.
Sequence of hP2X3 (human purinergic P2X receptor subtype 3) (P56373 whole entry): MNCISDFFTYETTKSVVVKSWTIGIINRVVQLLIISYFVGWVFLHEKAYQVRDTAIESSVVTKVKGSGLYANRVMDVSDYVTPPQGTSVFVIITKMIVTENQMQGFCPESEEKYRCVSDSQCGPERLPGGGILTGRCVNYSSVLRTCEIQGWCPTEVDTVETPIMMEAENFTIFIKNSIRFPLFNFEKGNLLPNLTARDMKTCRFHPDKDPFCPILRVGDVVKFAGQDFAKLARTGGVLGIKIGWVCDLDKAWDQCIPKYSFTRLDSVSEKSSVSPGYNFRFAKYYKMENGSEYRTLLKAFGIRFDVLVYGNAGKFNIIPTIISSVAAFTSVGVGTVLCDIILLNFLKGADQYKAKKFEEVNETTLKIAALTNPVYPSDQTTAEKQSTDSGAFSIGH
Assay type: cell-based
`CNC(=O)c1cc(F)c(C2=CC3C=C(C)C=CN3N2C[C@H]2CN(C(=O)OC)CCO2)c(F)c1` (stereo partly drawn) [Compound 41] showed an IC50 of 200 to 5000 nM. `CNC(=O)c1cc(F)c(-c2nc3n(c2C[C@H]2CN(C(=O)OC)CCO2)CCN(C)C3)c(F)c1` [Compound 62] gave an IC50 of 200 to 5000 nM. Work on `CNC(=O)c1cc(F)c(-c2cc3cc(C)ccc3n2C[C@H]2CN(C(=O)OC)CCO2)c(F)c1` [Compound 40, methyl (S)-2-((2-(2,6-difluoro-4-(methylcarbamoyl)phenyl)-5-methyl-1H-indol-1-yl)methyl)morpholine-4-carboxylate] yielded an IC50 of 200 to 5000 nM. `CCC(=O)N1CCO[C@@H](Cc2c(-c3c(F)cc(-c4nc(C#N)co4)cc3F)nc3cc(C)ccn23)C1` [Compound 121] showed an IC50 of 200 to 5000 nM. `CNC(=O)c1cc(F)c(-c2nc3cc(C)ccn3c2CN2CCN(C(=O)OC)CC2)c(F)c1` [Compound 32] gave an IC50 of 200 to 5000 nM.

Same assay, conditions: read-out: P2X3 IC50
With `COC(=O)N1CCO[C@@H](Cc2c(-c3c(F)cc(NC(C)=O)cc3F)nc3cc(C(F)F)ccn23)C1` [Compound 151] the IC50 was < 10 nM. `COC(=O)N1CCO[C@@H](Cc2c(-c3ncc(S(N)(=O)=O)nc3Cl)nc3cc(C)ccn23)C1` [Compound 191] was tested, and the IC50 was < 10 nM. In the case of `COC(=O)N1CCO[C@@H](Cc2c(-c3c(F)cc(-c4nc(C#N)c[nH]4)cc3F)nc3cc(C)ccn23)C1` [Compound 38, methyl (S)-2-((2-(2,6-difluoro-4-(4-cyano-1H-imidazol-2-yl)phenyl)-7-methylimidazo[1,2-a]pyridin-3-yl)methyl)morpholine-4-carboxylate], the IC50 is reported as < 10 nM. Work on `C=CC(=O)Nc1cc(F)c(-c2nc3cc(C)ccn3c2C[C@H]2CN(C(=O)OC)CCO2)c(F)c1` [Compound 87] yielded an IC50 of 50 to 200 nM. `CNC(=O)Cc1cc(F)c(-c2nc3cc(C)ccn3c2C[C@H]2CN(C(=O)OC)CCO2)c(F)c1` [Compound 64, methyl (S)-2-((2-(4-(2-(methylamino)-2-oxoethyl)-2,6-difluorophenyl)-7-methylimidazo[1,2-a]pyridin-3-yl)methyl) morpholine-4-carboxylate] showed an IC50 of 50 to 200 nM. With `COC(=O)N1CCO[C@@H](Cc2c(-c3c(F)cc(NC(=O)c4ccccc4)cc3F)nc3cc(C)ccn23)C1` [Compound 84] the IC50 was 50 to 200 nM. `CNC1(c2cc(F)c(-c3nc4cc(C)ccn4c3C[C@H]3CN(C(=O)OC)CCO3)c(F)c2)COC1` [Compound 69, methyl (S)-2-((2-(2,6-difluoro-4-(3-(methylamino)oxetan-3-yl)phenyl)-7-methylimidazo[1,2-a]pyridin-3-yl)methyl) morpholine-4-carboxylate] was tested, and the IC50 was 10 to 50 nM. In the case of `COC(=O)N1CCO[C@@H](Cc2c(-c3c(F)cc(NC4CC(=O)C4)cc3F)nc3cc(C)ccn23)C1` [Compound 78], the IC50 is reported as 10 to 50 nM. For `COC(=O)N1CCO[C@@H](Cc2c(-c3c(F)cc(Nc4ccco4)cc3F)nc3cc(C)ccn23)C1` [Compound 74], the IC50 was 50 to 200 nM. Molecule `COC(=O)N1CCO[C@@H](Cc2c(-c3c(F)cc(N4CCCC4=O)cc3F)nc3cc(C)ccn23)C1` [Compound 101] has an IC50 of 10 to 50 nM. Work on `COC(=O)N1CCO[C@@H](Cc2c(-c3c(F)cc(NC(=O)C4CCC(C(=O)O)CC4)cc3F)nc3cc(C)ccn23)C1` (stereo partly drawn) [Compound 82] yielded an IC50 of 10 to 50 nM. With `CCC(=O)N1CCO[C@@H](Cc2c(-c3c(F)cc(NC(C)=O)cc3F)nc3cc(Cl)ccn23)C1` [Compound 154] the IC50 was < 10 nM. Molecule `COC(=O)N1CCO[C@@H](Cc2c(-c3c(F)cc(-n4cnc(C(F)(F)F)c4)cc3F)nc3cc(C)ccn23)C1` [Compound 109, methyl (S)-2-((2-(2,6-difluoro-4-(4-trifluoromethyl-1H-imidazol-1-yl)phenyl)-7-methylimidazo[1,2-a]pyridin-3-yl)methyl)morpholine-4-carboxylate] has an IC50 of 50 to 200 nM. In the case of `COC(=O)N1CCO[C@@H](Cc2c(-c3c(F)cc(S(N)(=O)=O)cc3F)nc3cc(Cl)c(F)cn23)C1` [Compound 183, methyl (S)-2-((7-chloro-2-(2,6-difluoro-4-sulfamoylphenyl)-6-fluoroimidazo[1,2-a]pyridin-3-yl)methyl)morpholine-4-carboxylate], the IC50 is reported as 5.5 nM. For `CNC(=O)c1cc(F)c(-c2oc3cc(C)ncc3c2C[C@H]2CN(C(=O)OC)CCO2)c(F)c1` [Compound 55, methyl (S)-2-((2-(2,6-difluoro-4-(methylcarbamoyl)phenyl)-6-methylfurano[3,2-c]pyridin-3-yl)methyl)morpholine-4-carboxylate], the IC50 was < 10 nM. For `CNC(=O)c1cc(F)c(-c2nc3cc(C)cnc3n2C[C@H]2CN(C(=O)OC)CCO2)c(F)c1` [Compound 94, methyl (S)-2-((2-(2,6-difluoro-4-(methylcarbamoyl)phenyl)-6-methyl-3H-imidazo[4,5-b]pyridin-3-yl)methyl)morpholine-4-carboxylate], the IC50 was 50 to 200 nM. `COC(=O)N1CCO[C@@H](Cc2c(-c3c(F)cc(-c4nc(Cl)c[nH]4)cc3F)nc3cc(C)ccn23)C1` [Compound 34, methyl (S)-2-((2-(4-(4-chloro-1H-imidazol-2-yl)-2,6-difluorophenyl)-7-methylimidazo[1,2-a]pyridin-3-yl)methyl)morpholine-4-carboxylate] was tested, and the IC50 was < 10 nM. `COC(=O)N1CCO[C@@H](Cc2c(-c3c(F)cc(-n4ccc(C5(C(=O)O)CC5)c4)cc3F)nc3cc(C)ccn23)C1` [Compound 136] gave an IC50 of 50 to 200 nM. Work on `CNC1(c2cc(F)c(-c3nc4cc(C)ccn4c3C[C@H]3CN(C(=O)OC)CCO3)c(F)c2)CC1` [Compound 67, methyl (S)-2-((2-(2,6-difluoro-4-(1-(methylamino)cyclopropyl)phenyl)-7-methylimidazo[1,2-a]pyridin-3-yl)methyl) morpholine-4-carboxylate] yielded an IC50 of 10 to 50 nM. For `CNC(=O)c1cc(F)c(-c2nc3cc(C)ncn3c2C[C@H]2CN(C(=O)OC)CCO2)c(F)c1` [Compound 42, methyl (S)-2-((2-(2,6-difluoro-4-(methylcarbamoyl)phenyl)-7-methylimidazo[1,2-c]pyrimidin-3-yl)methyl)morpholine-4-carboxylate], the IC50 was < 10 nM. `COC(=O)N1CCC[C@@H](Cc2c(-c3c(F)cc(S(N)(=O)=O)cc3F)nc3cc(C)ccn23)C1` [Compound 187] gave an IC50 of 50 nM. Work on `COC(=O)N1CCO[C@@H](Cc2c(-c3c(F)cc(Nc4ccc(Cl)o4)cc3F)nc3cc(C)ccn23)C1` [Compound 72] yielded an IC50 of 50 to 200 nM. `COC(=O)N1CCO[C@@H](Cc2c(-c3c(F)cc(NC4CCC(=O)CC4)cc3F)nc3cc(C)ccn23)C1` [Compound 80, methyl (S)-2-((2-(2,6-difluoro-4-((4-carbonylcyclohexyl)amino)phenyl)-7-methylimidazo[1,2-a]pyridin-3-yl)methyl) morpholine-4-carboxylate] gave an IC50 of 10 to 50 nM. In the case of `COC(=O)N1CCO[C@@H](Cc2c(-c3c(F)cc(N4C(=O)C=CC4=O)cc3F)nc3cc(C)ccn23)C1` [Compound 28, methyl (S)-2-((2-(2,6-difluoro-4-(2,5-dioxo-2,5-dihydropyrrol-1-yl)phenyl)-7-methylimidazo[1,2-a]pyridin-3-yl)methyl)morpholine-4-carboxylate], the IC50 is reported as 10 to 50 nM. In the case of `COC(=O)N1CCO[C@@H](Cc2c(-c3c(F)cc(-n4ccnc4)cc3F)nc3cc(F)ccn23)C1` [Compound 132], the IC50 is reported as < 10 nM. `COC(=O)N1CCO[C@@H](Cc2c(-c3c(F)cc(-c4nc(C(=O)O)co4)cc3F)nc3cc(C)ccn23)C1` [Compound 114, (S)-2-(3,5-difluoro-4-(3-((4-(methoxycarbonyl)morpholin-2-yl)methyl)-7-methylimidazo[1,2-a]pyridin-2-yl)phenyl)oxazole-4-carboxylic acid] gave an IC50 of 10 to 50 nM. `COC(=O)N1CCO[C@@H](Cc2c(-c3c(F)cc(-c4ccon4)cc3F)nc3cc(C)ccn23)C1` [Compound 16, methyl (S)-2-((2-(2,6-difluoro-4-(isoxazol-3-yl)phenyl)-7-methylimidazo[1,2-a]pyridin-3-yl)methyl)morpholine-4-carboxylate] gave an IC50 of 10 to 50 nM. With `COC(=O)N1CCO[C@@H](Cc2c(-c3c(F)cc(NC(C)=O)cc3F)nc3cc(CF)ccn23)C1` [Compound 150, methyl (S)-2-((2-(4-acetamido-2,6-difluorophenyl)-7-(fluoromethyl)imidazo[1,2-a]pyridin-3-yl)methyl)morpholine-4-carboxylate] the IC50 was < 10 nM. `COC(=O)N1CCO[C@@H](Cc2c(-c3c(F)cc(-n4cncn4)cc3F)nc3cc(C)ccn23)C1` [Compound 142, methyl (S)-2-((2-(2,6-difluoro-4-(1H-1,2,4-triazol-1-yl)phenyl)-7-methylimidazo[1,2-a]pyridin-3-yl)methyl)morpholine-4-carboxylate] was tested, and the IC50 was < 10 nM. `COC(=O)N1CCO[C@@H](Cc2c(-c3c(F)cc(NC(C)=O)cc3F)nc3cc(C(F)(F)F)ccn23)C1` [Compound 153, methyl (S)-2-((2-(4-acetamido-2,6-difluorophenyl)-7-(trifluoromethyl)imidazo[1,2-a]pyridin-3-yl)methyl)morpholine-4-carboxylate] gave an IC50 of 50 to 200 nM. For `CNS(=O)(=O)c1cc(F)c(-c2nc3cc(C)ccn3c2C[C@H]2CN(C(=O)OC)CCO2)c(F)c1` [Compound 43, methyl (S)-2-((2-(2,6-difluoro-4-(N-methylsulfamoyl)phenyl)-7-methylimidazo[1,2-a]pyridin-3-yl)methyl)morpholine-4-carboxylate], the IC50 was < 10 nM.

What follows are molecules tested against hP2X2/3 (heterodimeric receptors formed by human purinergic P2X receptors subtype 2 and subtype 3) (Homo sapiens (Human), UniProt P56373+Q9UBL9) (assay: FLIPR calcium assay, hP2X2/3 expressed in HEK293 cells (P2X2/3 receptor selectivity)). Settings: not given.
Sequence of hP2X2/3 (heterodimeric receptors formed by human purinergic P2X receptors subtype 2 and subtype 3) (P56373 whole entry): as above
Sequence of hP2X2/3 (heterodimeric receptors formed by human purinergic P2X receptors subtype 2 and subtype 3) (Q9UBL9 whole entry): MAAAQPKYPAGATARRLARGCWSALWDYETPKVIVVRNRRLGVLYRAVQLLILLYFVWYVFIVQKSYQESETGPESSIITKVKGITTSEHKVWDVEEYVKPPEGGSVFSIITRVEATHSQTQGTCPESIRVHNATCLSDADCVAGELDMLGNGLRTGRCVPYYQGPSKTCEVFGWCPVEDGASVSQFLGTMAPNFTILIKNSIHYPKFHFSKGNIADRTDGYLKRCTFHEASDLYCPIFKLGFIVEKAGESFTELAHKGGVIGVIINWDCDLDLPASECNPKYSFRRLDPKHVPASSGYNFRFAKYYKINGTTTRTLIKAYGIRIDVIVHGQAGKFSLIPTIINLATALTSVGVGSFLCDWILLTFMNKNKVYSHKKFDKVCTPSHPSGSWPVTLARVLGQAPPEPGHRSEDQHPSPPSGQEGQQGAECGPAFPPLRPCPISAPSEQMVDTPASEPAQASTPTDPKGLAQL
Assay type: cell-based
In the case of `COC(=O)N1CCO[C@@H](Cc2c(-c3c(F)cc(NC(C)=O)cc3F)nc3cc(C(F)F)ccn23)C1` [Compound 151], the Folds of selectivity is reported as “A (key: A: folds of selectivity >1000; B: 200< folds of selectivity ≤1000; C: folds of selectivity ≤200)”. With `COC(=O)N1CCO[C@@H](Cc2c(-c3ncc(S(N)(=O)=O)nc3Cl)nc3cc(C)ccn23)C1` [Compound 191] the Folds of selectivity was “A (key: A: folds of selectivity >1000; B: 200< folds of selectivity ≤1000; C: folds of selectivity ≤200)”. `COC(=O)N1CCO[C@@H](Cc2c(-c3c(F)cc(-n4cnnn4)cc3F)nc3cc(C)ccn23)C1` [Compound 58] was tested, and the Folds of selectivity was “A (key: A: folds of selectivity >1000; B: 200< folds of selectivity ≤1000; C: folds of selectivity ≤200)”.

Same assay, conditions: HEK293 cells expressing hP2X2/3, agonist BZ-ATP 5 μM; unit inferred
With `COC(=O)N1CCO[C@@H](Cc2c(-c3c(F)cc(NC(C)=O)cc3F)nc3cc(C(F)F)ccn23)C1` [Compound 151] the IC50 was > 60000 nM. `COC(=O)N1CCO[C@@H](Cc2c(-c3ncc(S(N)(=O)=O)nc3Cl)nc3cc(C)ccn23)C1` [Compound 191] was tested, and the IC50 was > 60000 nM. With `COC(=O)N1CCO[C@@H](Cc2c(-c3c(F)cc(-n4cnnn4)cc3F)nc3cc(C)ccn23)C1` [Compound 58] the IC50 was > 60000 nM.
